The values below come from ChEMBL document CHEMBL1132522, “A new potent inhibitor of fungal melanin biosynthesis identified through combinatorial chemistry” (Bioorg Med Chem Lett, 1999).

One experiment deals with T1, Scytalone dehydratase (Magnaporthe oryzae (strain 70-15 / FGSC 8958) (Rice blast fungus)(Pyricularia oryzae), UniProt P56221).
T1 sequence (P56221 whole entry): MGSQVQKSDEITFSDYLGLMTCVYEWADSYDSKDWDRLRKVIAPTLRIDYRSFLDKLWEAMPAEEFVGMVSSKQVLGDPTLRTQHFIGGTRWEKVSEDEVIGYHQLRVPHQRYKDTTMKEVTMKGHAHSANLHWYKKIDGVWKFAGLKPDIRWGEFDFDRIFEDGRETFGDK
Kind of experiment: Inhibitory activity against Scytalone dehydratase. Also noted: species or system Pyricularia grisea.
Broadly, the Ki is the dissociation constant of the complex between target and ligand, obtained from inhibition or displacement. A low value points to tighter binding. `C[C@H](COc1ccccc1F)NC(=O)C1(C(F)(F)F)CC(C)(Cl)C1` (some centres not stated) yielded an inhibitory constant (Ki) of 0.78 nM.

The compound `CC(NC(=O)C1(C(F)(F)F)CC(C)(Cl)C1)c1ccc(Oc2ccccc2)cc1` (configuration not stated) showed an inhibition constant (Ki) of 5.6 nM. Consider `C[C@@H](NC(=O)C1(C(F)(F)F)CC(C)(Cl)C1)c1ccc(Br)cc1` (some centres not stated), for which the inhibitory constant (Ki) came to 0.049 nM. Same read-out and setting: next, `C[C@@H](NC(=O)[C@]1(C(F)(F)F)C[C@](C)(Cl)C1)c1ccc(Br)cc1` (stereo in doubt; 3b): 0.026 nM. In the case of `C[C@@H](NC(=O)[C@]1(C(F)(F)F)C[C@](C)(Cl)C1)c1ccc(Br)cc1` (stereo in doubt; 3a), the inhibition constant (Ki) turned out to be 2.3 nM. Compound `CC(CCc1ccccc1)NC(=O)C1(C(F)(F)F)CC(C)(Cl)C1` (configuration not stated) had a Ki of 8.6 nM.

The test system of the next experiment is Oryza sp. The experiment in a line: Compound was evaluated for protecting rice plants from infestation by blast upon foliar application. The experiment is classed as functional.
As for `C[C@@H](NC(=O)[C@]1(C(F)(F)F)C[C@](C)(Cl)C1)c1ccc(Br)cc1` (stereo in doubt; 3b), the ED90 is listed as 40 p.p.m.
